“Also recorded” adds a separate entry of the source. Read-outs that look alike come from different tables or passages of the source.
What was measured:
[1] = system: HT-1080 cells; experiment: Cellular dose response assay, HT-1080 with and without Fer-1; format: cell-based, human; settings: for Selectivity: ferroptosis selectivity; for ferroptosis induction / potency in HT-1080 cells, result in words: RSL3 as control
Source text: HT-1080 (human [Homo sapiens] […] fibrosarcoma), A-673 (human [Homo sapiens] […] Ewing's sarcoma), and SK-HEP-1 (human [Homo sapiens] […] hepatic adenocarcinoma), cells were obtained from ATCC. Huh7 (human [Homo sapiens] […] hepatocellular carcinoma), HLF (human [Homo sapiens] […] hepatocellular carcinoma), HepG2 (human [Homo sapiens] […] hepatocellular carcinoma), cells were obtained from the Cancer Cell Bank at Columbia University Irving Medical Center. HT-1080, A-673, Huh-7, and HLF cells were grown in Dulbecco's Modified Eagle Medium (DMEM) supplemented with 10% heat inactivated fetal bovine serum (HI-FBS), 1% non-essential amino acids, and 1% penicillin streptomycin. HepG2 and SK-HEP-1 cells were grown in Eagle's Minimum Essential Medium (EMEM) supplemented with 10% HI-FBS, and 1% penicillin-streptomycin. All cells were cultured at 37° C. and 5% CO2.
HT-1080, HepG2, Huh7, HLF, and SK-HEP-1 cells were seeded into opaque white 384-well plates at 1500 cells per well then incubated at 37° C. with 5% CO2 overnight. The next day, compounds of interest were dissolved in DMSO and 12-point 2-fold dilution series were prepared with and without Fer-1. Cells were treated in triplicate (final DMSO concentration of 0.4% in all wells, including DMSO-only control wells) and incubated for a further 48 hours at 37° C. and 5% CO2. Cell viability was evaluated using CellTiter-Glo (Promega G7573) and luminescence was recorded on a Victor 5 plate reader. Data were analyzed in GraphPad Prism 9 and error bars represent standard deviation values for three technical replicates in a representative experiment.

[2] = target: T1, GPX4 (Homo sapiens, UniProt P36969); experiment: GPX4 activity assay in cell lysates (NADPH-coupled); format: biochemical; design: endogenous in cells; host or cells: A-673 cell lysate
T1 sequence (P36969 1-170 isoform P36969-2): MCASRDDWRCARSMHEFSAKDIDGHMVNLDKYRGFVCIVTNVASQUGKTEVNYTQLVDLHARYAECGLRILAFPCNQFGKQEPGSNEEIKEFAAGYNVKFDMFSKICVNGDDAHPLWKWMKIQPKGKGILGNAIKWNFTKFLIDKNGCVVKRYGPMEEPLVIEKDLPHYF
Summary of the method: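 Native GPX4 in lysates of A-673 cells grown with 20 nM sodium selenite; lysate preincubated with compound 45 min at 37 °C in pH 8.0 buffer with 3 mM GSH, 0.5 mM NADPH and glutathione reductase. Reaction started with phosphatidylcholine hydroperoxide; NADPH consumption followed at 340 nm over 25 min; triplicates.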

[3] = HT1080 + Fer-1, read-out: IC50 (uM) HT1080 + Fer-1
[4] = HT1080, without Fer-1, read-out: IC50 (uM) HT1080
[5] = with Fer-1, Table 10, read-out: IC50 (μM) HT1080 + Fer-1
[6] = without Fer-1, Table 10, read-out: IC50 (μM) HT1080

Compound | IC50 [1, 3] [µM] | IC50 [1, 4] [µM] | Selectivity ([1]; HT1080 + Fer-1 vs HT1080) | GPX4% inhibition at 2.5 μM ([2]; 2.5 μM) [%] | ferroptosis induction / potency in HT-1080 cells, result in words [1] | GPX4 inhibitory activity, result in words [2] | GPX4 inhibition ([2]; 2.5 μM) | Selectivity ([1]; IC50 with Fer-1 / IC50) | IC50 [1, 5] [µM] | IC50 [1, 6] [µM] | GPX4% inhibition at 2.5 μM ([2]; 2.5 μM, 4th generation) [%]
Cn1nc(-n2cc(C(C)(C)COC(=O)CCl)nn2)c2ccc(-c3ccc(OC(F)(F)F)c(Cl)c3)cc21 [QW-677] | 14 | 1.65 | 8.5 | 33.6 ± 6.3 | – | – | – | – | – | – | –
Cn1nc(-c2nnc(C(C)(OC(=O)CCl)C(F)(F)F)o2)c2ccc(-c3ccc4c(c3)OCO4)cc21 (centres unmarked) [QW-695] | 14.4 | 9.4 | 1.5 | −49.5 ± 28.5 | – | – | – | – | – | – | –
Cn1nc(-n2cc(C(C)(C)COC(=O)CCl)nn2)c2ccc(-c3ccc4c(c3)OCO4)cc21 [QW-696] | 8.8 | 2.9 | 3.0 | 22.3 ± 37.1 | – | – | – | – | – | – | –
COc1c(Cl)cc(-c2ccc3c(C(=O)NC(C)(C)COC(=O)CCl)nn(C)c3c2)cc1Cl [QW-711] | 31.7 | 1.4 | 22.6 | 98.4 ± 17.6 | less potent compared to RSL3 | further increase the inhibitory activity | – | – | – | – | –
COc1c(Cl)cc(-c2ccc3c(-n4cc(C(C)(C)COC(=O)CCl)nn4)nn(C)c3c2)cc1Cl [QW-712] | 28.4 | 1.9 | 14.9 | 68.5 ± 9.4 | less potent compared to RSL3 | – | – | – | – | – | –
Cn1nc(C(=O)NC(C)(C)COC(=O)CCl)c2ccc(-c3ccc(OC(C)(C)C)cc3)cc21 [QW-715] | 24.1 | 2.6 | 9.3 | 95.3 ± 7.6 | more potent compared to RSL3 | – | completely inhibited GPX4 | – | – | – | –
CC(C)Oc1ncc(-c2ccc3c(C(=O)NC(C)(C)COC(=O)CCl)nn(C)c3c2)cn1 [QW-716] | 63 | 1.6 | 39.4 | 86.4 ± 7.3 | more potent compared to RSL3 | substantially higher GPX4 inhibitory activities than QW-446 | – | – | – | – | –
Cn1nc(C(=O)NC(C)(C)C(C)(C)OC(=O)CCl)c2ccc(-c3ccc(N4CCOCC4)c(Cl)c3)cc21 [QW-731] | 2.8 | 1.2 | 2.3 | 68.5 ± 9.4 | – | – | – | – | – | – | –
COc1ccc(-c2ccc3c(-n4cc(CCOC(=O)CCl)nn4)nn(C)c3c2)cc1Cl [QW-755] | 23.9 | 9.5 | 2.5 | 43.2 ± 14.9 | – | – | – | – | – | – | –
COc1ccc(-c2ccc3c(C(=O)NC(C)(C)C(C)(C)OC(=O)CCl)nn(C)c3c2)cc1Br [QW-766] | 2.5 | 1.2 | 2.1 | −31.1 ± 29.6 | – | – | – | – | – | – | –
Cn1nc(C(=O)NC(C)(C)C(C)(C)OC(=O)CCl)c2ccc(-c3ccc(OC(C)(C)C)cc3)cc21 [QW-770] | 2.2 | 1 | 2.2 | −36.4 ± 19.3 | – | – | – | – | – | – | –
COc1ccc(-c2ccc3c(C(=O)NCC(C)(C)OC(=O)CCl)nn(C)c3c2)cc1Cl [QW-774] | 8.8 | 3.7 | 2.4 | −25.3 ± 6.9 | – | – | – | – | – | – | –
Cn1nc(C(=O)NC(C)(C)C(C)(C)OC(=O)CCl)c2ccc(-c3ccc(C(F)(F)F)c(Cl)c3)cc21 [QW-786] | 5.8 | 2.4 | 2.6 | 31.7 ± 19.5 | – | – | – | – | – | – | –
COc1ccc(-c2ccc3c(-n4cc(C(C)(C)CNC(=O)CCl)nn4)nn(C)c3c2)cc1Cl [QW-792] | 5.8 | 1.1 | 5.3 | −19.6 ± 18.2 | – | – | – | – | – | – | –
COc1c(F)cc(-c2ccc3c(C(=O)NC(C)(C)C(C)(C)OC(=O)CCl)nn(C)c3c2)cc1Cl [QW-796] | 2.6 | 2.4 | 1.1 | 4.6 ± 14.4 | – | – | – | – | – | – | –
COc1c(F)cc(-c2ccc3c(-n4cc(C(C)(C)COC(=O)CCl)nn4)nn(C)c3c2)cc1Cl [QW-801] | 14.3 | 8.4 | 1.7 | 58.1 ± 9.2 | – | – | – | – | – | – | –
COc1ccc(-c2ccc3c(C(=O)NC(C)(C)C(C)(C)OC(=O)CCl)nn(Cc4ccc(Cl)cc4)c3c2)cc1Cl [QW-809] | – | – | – | – | – | – | – | 1.5 | 6.5 | 4.2 | 34.6 ± 29.6
COc1c(Cl)cc(-c2ccc3c(C(=O)NC(C)(C)C(C)(C)OC(=O)CCl)nn(C)c3c2)cc1C(F)(F)F [QW-813] | 3 | 2.1 | 1.4 | −17.0 ± 28.7 | – | – | – | – | – | – | –
COc1c(Cl)cc(-c2ccc3c(C(=O)NC(C)(C)COC(=O)CCl)nn(C)c3c2)cc1C(F)(F)F [QW-815] | 16.7 | 0.58 | 28.8 | 79.3 ± 5.5 | sub-molar range cellular activities and decreased ferroptosis selectivity | – | – | – | – | – | –
COc1ccc(-c2ccc3c(C(=O)NC(C)(C)COC(=O)CCl)nn(Cc4ccc(Cl)cc4)c3c2)cc1Cl [QW-823] | – | – | – | – | good potency in cell and selectivity to GPX4; also recorded: outstanding cytotoxicity with sub-molar scale | greater GPX4 inhibitory activity than QW-446 | – | 34.5 | 11.4 | 0.33 | 95.0 ± 13.1
CC(C)(COC(=O)CCl)NC(=O)c1nn(Cc2ccc(Cl)cc2)c2cc(-c3ccc(N4CCOCC4)c(Cl)c3)ccc12 [QW-824] | – | – | – | – | good potency in cell and selectivity to GPX4; also recorded: outstanding cytotoxicity with sub-molar scale | greater GPX4 inhibitory activity than QW-446 | – | >220 | > 40 | 0.18 | 90.5 ± 7.4
C=CC(=O)OCC(C)(C)NC(=O)c1nn(Cc2ccc(Cl)cc2)c2cc(-c3ccc(OC)c(Cl)c3)ccc12 [QW-831] | – | – | – | – | – | – | – | 1.1 | 13 | 12 | 32.6 ± 61.0
COc1ccc(-c2ccc3c(C(=O)NC(C)(C)COC(=O)C#C[Si](C)(C)C)nn(Cc4ccc(Cl)cc4)c3c2)cc1Cl [QW-832] | – | – | – | – | – | – | – | 37.4 | 63.6 | 1.7 | 58.9 ± 9.0

Source: US20250248979A1, “NOVEL GPX4 INHIBITORS AND USES THEREOF” (THE TRUSTEES OF COLUMBIA UNIVERSITY IN THE CITY OF NEW YORK, priority 2022, published 2025)
